In this assay the target is Glutaminyl-peptide cyclotransferase (Homo sapiens, UniProt Q16769). Description: Inhibition of N-terminal his6-tagged human recombinant glutaminyl cyclase expressed in Escherichia coli using H-Gln-AMC as substrate incubated for 60 mins in presence of pyroglutamyl peptidase.

Structures are written as SMILES.

Here are results for 1 compound from ChEMBL document CHEMBL5356981, “Discovery of potential scaffolds for glutaminyl cyclase inhibitors: Virtual screening, synthesis, and evaluation” (Bioorg Med Chem, 2024).

Sequence of Glutaminyl-peptide cyclotransferase (Q16769 whole entry): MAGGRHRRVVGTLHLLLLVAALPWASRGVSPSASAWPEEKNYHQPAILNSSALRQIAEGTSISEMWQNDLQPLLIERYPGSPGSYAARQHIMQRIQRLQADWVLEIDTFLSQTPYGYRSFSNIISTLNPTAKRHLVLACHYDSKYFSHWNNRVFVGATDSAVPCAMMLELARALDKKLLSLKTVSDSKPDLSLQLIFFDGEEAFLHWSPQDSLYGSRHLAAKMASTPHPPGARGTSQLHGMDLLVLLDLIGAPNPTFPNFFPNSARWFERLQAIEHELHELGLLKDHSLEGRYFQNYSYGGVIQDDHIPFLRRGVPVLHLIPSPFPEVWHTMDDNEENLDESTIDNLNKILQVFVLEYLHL

On to `COc1ccc(S(=O)(=O)Nc2ccc(-c3cn[nH]c3)cc2)cc1`, for which the half-inhibitory concentration (IC50) (commonly the concentration that inhibits the measured activity by half) was greater than 30 µM.
